# Laboratory results taken from paper PMC12226733, “Evolution of iGluR ligand specificity, polyamine regulation, and ion selectivity inferred from a placozoan epsilon receptor” (Communications Biology, 2025).
# Where “and” joins values, the source holds several entries; their conditions need not be identical. Equal entries are not always repeated. Entries after “also recorded” stand apart in the source; their conditions may differ. Where two headings read alike, the source gives them in different places.
# Columns and labels:
# [1] = tested on: GluE1αA m2 variant (S653G, I655T); assay type: cell-based, Trichoplax adhaerens; conditions: for normalized peak inward current, Avg / normalized peak inward current, single recording / normalized current (dose response), Avg / normalized current (dose response), single recording: m2
# Text: (§1) As noted, a model has been put forward that defines iGluR ligand specificity based on a set of key amino acids in the LBD of iGluRs[11]. […] To the best of our knowledge, whether these few positions are indeed solely responsible for ligand specificity, and moreover, can be altered to switch specificity for natural ligands, has not been experimentally tested. […] We also created a triple mutant, with an additional phenylalanine to tyrosine mutation at position 732 (F732Y; m3 variant), to make the T. adhaerens epsilon receptor resemble GluN2A and GluA2 receptors from human, reasoning that this mutation might enhance glutamate sensitivity. We also generated a single F732Y mutant (m1 variant), to assess the contribution of this amino acid to ligand specificity in isolation.
# (§2) The cDNA of the T. adhaerens GluE1αA receptor was cloned into the mammalian expression vector pIRES2-EGFP, using a 5’ nested primer that inserted a mammalian consensus Kozak sequence of […] (Supplementary Table 5). Several mutants/variants of this receptor where also prepared via site directed mutagenesis using standard procedures and primers listed in Supplementary Table 5. For electrophysiological comparisons, we commissioned GenScript (USA) to synthesize the cDNA of the human GluA2 […] receptor (NCBI accession number NP_001077088.2), which was cloned into the pIRES2-EGFP vector with a Kozak sequence flanking the start codon and restriction enzymes SalI and BamHI at the 5’ and 3’ ends of the cDNA, respectively. Receptor cDNAs in the various pIRES2 constructs were transfected into Chinese Hamster Ovary-K1 (CHO-K1; Sigma) cells cultured in Dulbecco’s Modified Eagle Medium Nutrient Mixture F-12 (DMEM/F12) supplemented with 10% Fetal Bovine Serum (FBS) and 1% penicillin-streptomycin at 37°C. Transfections were done with 2 μg of plasmid vector using the transfecting reagent PolyJet^TM (SignaGen Laboratories, USA) according to the manufacturer’s instructions and plated onto glass coverslips in 35 mm dishes the next day. Transfected cells were incubated at 28°C for 2 to 4 days, then coverslips were transferred to a new 60 mm dish with 5 mL of external recording solution. […] Agonists and pharmacological compounds used in this study were dissolved in corresponding external solutions. […] Patch pipettes were pulled using a P-1000 micropipette puller (Sutter, USA), from thick-walled borosilicate tubing (1.5 and 0.86 outer and inner diameter, respectively), to a resistance of between 1 and 6 megaohms.
# [2] = tested on: GluE1αA m3 variant (S653G, I655T, F732Y); assay type: cell-based, Trichoplax adhaerens; conditions: for normalized peak inward current, Avg / normalized peak inward current, single recording / normalized current (dose response), Avg / normalized current (dose response), single recording: m3
# Text: as §1, §2
# [3] = molecular target: T. adhaerens GluE1αA receptor (wildtype) (Trichoplax adhaerens, UniProt B3SAW0); experiment: whole-cell patch clamp, agonist-evoked currents in CHO-K1 cells; assay type: cell-based; conditions: for normalized peak inward current, Avg / normalized peak inward current, single recording: wild type; for sensitivity to agonist: 1 mM
# T. adhaerens GluE1αA receptor (wildtype), sequence (B3SAW0 entry or part of it): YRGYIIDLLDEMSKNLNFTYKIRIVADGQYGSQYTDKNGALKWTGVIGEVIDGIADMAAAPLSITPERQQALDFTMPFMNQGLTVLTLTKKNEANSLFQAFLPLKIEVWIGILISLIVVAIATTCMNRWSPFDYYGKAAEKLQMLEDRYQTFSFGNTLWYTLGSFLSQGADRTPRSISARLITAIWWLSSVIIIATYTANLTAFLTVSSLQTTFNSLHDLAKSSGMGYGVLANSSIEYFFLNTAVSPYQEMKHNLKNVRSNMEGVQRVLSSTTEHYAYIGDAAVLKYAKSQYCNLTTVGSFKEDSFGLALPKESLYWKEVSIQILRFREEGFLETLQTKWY
# [4] = tested on: GluE1αA m1 variant (F732Y); assay type: cell-based, Trichoplax adhaerens; conditions: m1; ligand 10 mM; normalized to glycine
# Text: as §1, §2
# [5] = ligand 10 mM, normalized to glutamate
# [6] = ligand tested on its own at 10 mM
# [7] = ligand 10 mM, normalized to glycine
# [8] = tested as a single mix each at 3 mM
smiles,measurement,setting,value
"Cc1onc(O)c1CC(N)C(=O)O (stereo not drawn) [AMPA, α-amino-3-hydroxy-5-methyl-4-isoxazolepropionic acid]","normalized peak inward current, Avg",[1]; agonist 1 mM,0.00676
same,"normalized peak inward current, Avg",[2]; agonist 1 mM,0.36
same,"normalized peak inward current, single recording",[2]; agonist 1 mM,0.33 and 0.26 and 0.30 and 0.41 and 0.44 and 0.43
same,sensitivity to agonist,"[2]; m3 variant, 1 mM",moderate responses; also recorded: sensitive
same,peak amplitude relative to current elicited by 1 mM glutamate,"[2]; m3 variant, 1 mM AMPA, slow desensitizing currents",roughly 36%
same,"normalized peak inward current, Avg",[3]; agonist 1 mM,0.00463
same,sensitivity to agonist,[3]; wildtype,insensitivity; also recorded: not sensitive
N[C@H](CO)C(=O)O [D-serine],"normalized peak inward current, Avg",[4],0.76
same,"normalized peak inward current, single recording",[4],0.75 and 0.83 and 0.85 and 0.77 and 0.60
same,"normalized peak inward current, Avg",[1]; [5],0.06
same,"normalized peak inward current, single recording",[1]; [5],0.0548 and 0.0529 and 0.07 and 0.06 and 0.05
same,"normalized peak inward current, Avg",[2]; [5],0.19
same,activation of ligand-gated current,[3]; [6],activated
same,"normalized peak inward current, Avg",[3]; [7],0.95
same,"normalized peak inward current, single recording",[3]; [7],0.93 and 1.00 and 0.86 and 0.89
same,"normalized current (dose response), Avg","[3]; wildtype, ligand 0.03 mM",0.0178
same,"normalized current (dose response), Avg","[3]; wildtype, ligand 0.10 mM",0.20
same,"normalized current (dose response), Avg","[3]; wildtype, ligand 0.30 mM",0.78
same,"normalized current (dose response), single recording","[3]; wildtype, ligand 0.30 mM",0.63 and 0.81 and 0.90 and 0.84 and 0.69 and 0.70
same,"normalized current (dose response), Avg","[3]; wildtype, ligand 1.00 mM",0.97
same,"normalized current (dose response), single recording","[3]; wildtype, ligand 1.00 mM",1.00 and 0.99 and 0.87 and 0.90
same,EC50,"[3]; wildtype, monophasic dose-response fit of normalized whole-cell current",190 ± 40 µM
N[C@@H](CO)C(=O)O [L-serine],"normalized peak inward current, Avg",[4],1.05
same,"normalized peak inward current, single recording",[4],1.18 and 1.01 and 1.00 and 1.05
same,"normalized peak inward current, Avg",[1]; [5],0.20
same,"normalized peak inward current, single recording",[1]; [5],0.17 and 0.18 and 0.24 and 0.27
same,"normalized peak inward current, Avg",[2]; [5],0.07
same,activation of ligand-gated current,[3]; [6],activated
same,"normalized peak inward current, Avg",[3]; [7],0.94
same,"normalized peak inward current, single recording",[3]; [7],1.00 and 0.98 and 0.94 and 0.78 and 0.93 and 0.97
same,"normalized current (dose response), Avg","[3]; wildtype, ligand 0.03 mM",0.017
same,"normalized current (dose response), Avg","[3]; wildtype, ligand 0.10 mM",0.35
same,"normalized current (dose response), Avg","[3]; wildtype, ligand 0.30 mM",0.95
same,"normalized current (dose response), single recording","[3]; wildtype, ligand 0.30 mM",1.00 and 0.97 and 0.95 and 0.77 and 0.99
same,"normalized current (dose response), Avg","[3]; wildtype, ligand 1.00 mM",1.00
same,"normalized current (dose response), single recording","[3]; wildtype, ligand 1.00 mM",0.99 and 1.00 and 0.98
same,"normalized current (dose response), Avg","[3]; wildtype, ligand […]",0.63
"CN[C@H](CC(=O)O)C(=O)O [NMDA, N-methyl-D-aspartate]","normalized peak inward current, Avg",[1]; agonist 1 mM,0.0107
same,"normalized peak inward current, Avg",[2]; agonist 1 mM,0.00471
same,"normalized peak inward current, Avg",[3]; agonist 1 mM,0.00229
same,sensitivity to agonist,[3]; wildtype,insensitivity; also recorded: not sensitive
"C[C@H](N)C(=O)O [alanine, L-alanine]","normalized peak inward current, Avg",[4],1.12
same,"normalized peak inward current, single recording",[4],1.10 and 1.06 and 1.08 and 1.13 and 1.23
same,"normalized peak inward current, Avg",[1]; [5],0.36
same,"normalized peak inward current, single recording",[1]; [5],0.33 and 0.37 and 0.40 and 0.41 and 0.31
same,"normalized peak inward current, Avg",[2]; [5],0.0342
same,"normalized current (dose response), Avg",[3],0.80
same,"normalized current (dose response), single recording",[3],0.66 and 0.73 and 0.79 and 0.89 and 0.75 and 0.91 and 0.87 and 0.80
same,activation of ligand-gated current,[3]; [6],activated
same,"normalized peak inward current, Avg",[3]; [7],0.89
same,"normalized peak inward current, single recording",[3]; [7],0.85 and 0.96 and 0.83 and 1.00 and 0.82
same,"normalized current (dose response), Avg","[3]; wildtype, ligand 0.01 mM",0.0244
same,"normalized current (dose response), Avg","[3]; wildtype, ligand 0.03 mM",0.28
same,"normalized current (dose response), Avg","[3]; wildtype, ligand 0.30 mM",1.00
same,"normalized current (dose response), single recording","[3]; wildtype, ligand 0.30 mM",1.00
same,"normalized current (dose response), Avg","[3]; wildtype, ligand […]",0.60
N=C(N)NCCC[C@H](N)C(=O)O [arginine],activation of ligand-gated current,[3]; [6],no responses
N[C@@H](CC(=O)O)C(=O)O [aspartate],activation of ligand-gated current,[3]; [6],no responses
C[N+](C)(C)CC(=O)O [betaine],activation of ligand-gated current,[3]; [6],no responses
N[C@@H](CCC(=O)O)C(=O)O [glutamate],"normalized peak inward current, Avg",[4],0.02
same,"normalized peak inward current, Avg",[1]; agonist 1 mM,0.76
same,"normalized peak inward current, single recording","[1]; agonist 1 mM, listed as Glu",0.74 and 0.64 and 0.71 and 0.87 and 0.80
same,"normalized current (dose response), Avg",[1]; glutamate 0.3 mM,0.0181
same,"normalized current (dose response), Avg",[1]; glutamate 1 mM,0.22
same,"normalized current (dose response), single recording",[1]; glutamate 1 mM,0.14 and 0.22 and 0.25 and 0.19 and 0.27
same,"normalized current (dose response), Avg",[1]; glutamate 3 mM,0.76
same,"normalized current (dose response), single recording",[1]; glutamate 3 mM,0.66 and 0.88 and 0.67 and 0.63 and 0.98 and 0.72
same,"normalized current (dose response), Avg",[1]; glutamate 10 mM,0.98
same,"normalized current (dose response), single recording",[1]; glutamate 10 mM,1.00 and 0.98 and 0.92
same,"normalized peak inward current, Avg",[1]; [5],1.00
same,"normalized peak inward current, single recording",[1]; [5],1.00
same,sensitivity to agonist,"[1]; m2 variant, 1 mM",robust responses
same,EC50,"[1]; m2 variant, dose response of normalized current",1810 ± 200 µM
same,"normalized peak inward current, Avg",[2]; agonist 1 mM,1.00
same,"normalized peak inward current, single recording","[2]; agonist 1 mM, listed as Glu",1.03 and 1.05 and 1.08 and 0.95 and 0.92 and 0.91
same,"normalized current (dose response), Avg",[2]; glutamate 0.1 mM,0.02
same,"normalized current (dose response), Avg",[2]; glutamate 0.3 mM,0.16
same,"normalized current (dose response), single recording",[2]; glutamate 0.3 mM,0.14 and 0.12 and 0.11 and 0.13 and 0.20 and 0.16 and 0.19
same,"normalized current (dose response), Avg",[2]; glutamate 1 mM,0.88
same,"normalized current (dose response), single recording",[2]; glutamate 1 mM,0.97 and 0.78 and 0.74 and 0.89 and 0.95 and 0.87 and 0.86 and 0.96
same,"normalized current (dose response), Avg",[2]; glutamate 3 mM,0.95
same,"normalized current (dose response), single recording",[2]; glutamate 3 mM,0.98 and 0.83 and 1.00 and 0.87
same,"normalized peak inward current, Avg",[2]; [5],1.00
same,"normalized peak inward current, single recording",[2]; [5],1.00
same,EC50,"[2]; m3 variant, dose response of normalized current",610 ± 60 µM
same,activation of ligand-gated current,[3]; [6],no responses
same,"normalized peak inward current, Avg",[3]; agonist 1 mM,0.0035
same,"normalized peak inward current, Avg",[3]; [7],0.00871
N[C@@H](Cc1c[nH]cn1)C(=O)O [histidine],activation of ligand-gated current,[3]; [8],no responses
CC[C@H](C)[C@H](N)C(=O)O [isoleucine],activation of ligand-gated current,[3]; [8],no responses
C=C(C)[C@H]1CN[C@H](C(=O)O)[C@H]1CC(=O)O [kainate],"normalized peak inward current, Avg",[1]; agonist 1 mM,0.00537
same,"normalized peak inward current, Avg",[2]; agonist 1 mM,0.00374
same,"normalized peak inward current, Avg",[3]; agonist 1 mM,0.00265
same,sensitivity to agonist,[3]; wildtype,insensitivity; also recorded: not sensitive
CC(C)C[C@H](N)C(=O)O [leucine],activation of ligand-gated current,[3]; [8],no responses
NCCCC[C@H](N)C(=O)O [lysine],activation of ligand-gated current,[3]; [8],no responses
CSCC[C@H](N)C(=O)O [methionine],activation of ligand-gated current,[3],no responses
N[C@@H](Cc1ccccc1)C(=O)O [phenylalanine],activation of ligand-gated current,[3]; [8],no responses
N[C@@H](Cn1oc(=O)[nH]c1=O)C(=O)O [quisqualate],"normalized peak inward current, Avg",[1]; agonist 1 mM,0.00939
same,"normalized peak inward current, Avg",[2]; agonist 1 mM,0.01
same,"normalized peak inward current, Avg",[3]; agonist 1 mM,0.00248
same,sensitivity to agonist,[3]; wildtype,not sensitive
C[C@@H](O)[C@H](N)C(=O)O [threonine],activation of ligand-gated current,[3]; [6],no responses
CC(C)[C@H](N)C(=O)O [valine],"normalized peak inward current, Avg",[4],0.0347
same,"normalized peak inward current, Avg",[1]; [5],0.00917
same,"normalized peak inward current, Avg",[2]; [5],0.0123
same,activation of ligand-gated current,[3]; [6],weakly
same,"normalized peak inward current, Avg",[3]; [7],0.35
same,"normalized current (dose response), Avg","[3]; wildtype, ligand 0.30 mM",0.0282
same,"normalized current (dose response), Avg","[3]; wildtype, ligand 1.00 mM",0.32
same,"normalized current (dose response), Avg","[3]; wildtype, ligand 3.00 mM",0.83
same,"normalized current (dose response), single recording","[3]; wildtype, ligand 3.00 mM",0.85 and 0.78 and 0.82 and 0.89 and 0.92 and 0.71 and 0.81 and 0.88
same,"normalized current (dose response), Avg","[3]; wildtype, ligand 10.00 mM",1.00
same,"normalized current (dose response), single recording","[3]; wildtype, ligand 10.00 mM",1.00
same,"normalized current (dose response), Avg","[3]; wildtype, ligand […]",0.56
